Results: ChEMBL document CHEMBL3098066, “Minimum active structure of insulin-like peptide 5” (J Med Chem, 2013)
Activity calls are given as the source filed them. Where a SMILES comes first, the peptide text is derived from it. Bridges are numbered along the chain shown (N, C = ends). The star is where a group is joined. Acm = CC(=O)NC*; tBu = CC(C)(C)*; Cam = NC(=O)C*

Key:
[1] = target: Relaxin-3 receptor 2 (Homo sapiens) (UniProt Q8TDU9); test: Agonist activity at human RXFP4 transfected in CHO-K1 cells assessed as inhibition of forskolin-induced cAMP production by beta-galactosidase reporter gene assay; type: functional, cell-based
Sequence of Relaxin-3 receptor 2 (Homo sapiens) (Q8TDU9 whole entry): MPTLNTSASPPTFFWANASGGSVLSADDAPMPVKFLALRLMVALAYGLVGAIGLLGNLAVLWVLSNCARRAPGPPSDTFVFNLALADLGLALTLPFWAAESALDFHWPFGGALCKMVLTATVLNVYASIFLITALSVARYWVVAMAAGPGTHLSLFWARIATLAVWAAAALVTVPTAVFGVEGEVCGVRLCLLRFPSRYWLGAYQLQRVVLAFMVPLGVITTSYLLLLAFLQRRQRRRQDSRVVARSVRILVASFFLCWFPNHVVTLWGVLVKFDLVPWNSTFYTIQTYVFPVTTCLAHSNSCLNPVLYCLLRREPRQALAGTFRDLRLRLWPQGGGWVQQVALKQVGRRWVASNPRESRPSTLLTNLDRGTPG

[2] = target: Relaxin-3 receptor 2 (Homo sapiens) (UniProt Q8TDU9); test: Displacement of Eu(A)-mINSL5 acid from human RXFP4 transfected in CHO-K1 cells by fluorescence-based assay; type: cell-based
[3] = target: Relaxin-3 receptor 2 (Homo sapiens) (UniProt Q8TDU9); test: Agonist activity at human RXFP4 transfected in CHO-K1 cells at 10 uM by beta-galactosidase reporter gene assay relative to forskolin; type: functional, cell-based
[4] = target: Relaxin-3 receptor 2 (Homo sapiens) (UniProt Q8TDU9); test: Agonist activity at human RXFP4 transfected in CHO-K1 cells at 0.01 nM to 1000 nM by beta-galactosidase reporter gene assay relative to forskolin; type: functional, cell-based
[5] = target: Relaxin-3 receptor 2 (Homo sapiens) (UniProt Q8TDU9); test: Agonist activity at human RXFP4 transfected in CHO-K1 cells up to 10 uM by beta-galactosidase reporter gene assay relative to forskolin; type: functional, cell-based

H-SRQTVKLAGLDYVRTVIYIAASSRW-OH
inactive: pEC50 [1] | pIC50 [2] | Emax [3]

CSCC[C@H](NC(=O)[C@H](CO)NC(=O)[C@H](CSCC(N)=O)NC(=O)CNC(=O)[C@H](CCC(=O)O)NC(=O)[C@H](CCCNC(=N)N)NC(=O)[C@H](CSC(C)(C)C)NC(=O)[C@H](CSCC(N)=O)NC(=O)[C@H](CC(C)C)NC(=O)[C@H](C)NC(=O)[C@H](CCC(N)=O)NC(=O)[C@H](CC(C)C)NC(=O)[C@H](CC(=O)O)NC(=O)[C@@H](N)CCCNC(=N)N)C(=O)N[C@@H](CCCCN)C(=O)N[C@@H](CCC(=O)O)C(=O)N[C@@H](CC(C)C)C(=O)N[C@@H](CO)C(=O)N[C@H](C(=O)N[C@@H](CC(C)C)C(=O)N[C@@H](CSCNC(C)=O)C(=O)O)[C@@H](C)O (H-RDLQALC(Cam)C(tBu)REGC(Cam)SMKELSTLC(Acm)-OH)
inactive: pEC50 [1] | pIC50 [2] | Emax [4]

CSCC[C@H](NC(=O)[C@H](CO)NC(=O)[C@@H]1CSSC[C@H](NC(=O)[C@H](CC(C)C)NC(=O)[C@H](C)NC(=O)[C@H](CCC(N)=O)NC(=O)[C@H](CC(C)C)NC(=O)[C@H](CC(=O)O)NC(=O)[C@@H](N)CCCNC(=N)N)C(=O)N[C@@H](CSC(C)(C)C)C(=O)N[C@@H](CCCNC(=N)N)C(=O)N[C@@H](CCC(=O)O)C(=O)NCC(=O)N1)C(=O)N[C@@H](CCCCN)C(=O)N[C@@H](CCC(=O)O)C(=O)N[C@@H](CC(C)C)C(=O)N[C@@H](CO)C(=O)N[C@H](C(=O)N[C@@H](CC(C)C)C(=O)N[C@@H](CSCNC(C)=O)C(=O)O)[C@@H](C)O (H-RDLQALCC(tBu)REGCSMKELSTLC(Acm)-OH; disulfide 7-12)
inactive: pEC50 [1] | pIC50 [2] | Emax [4]

H-SRQTVKLAGLDYVRTVIYIAR-OH
inactive: pEC50 [1] | Emax [5] | pIC50 [2]
